Measured values: ChEMBL document CHEMBL1201862, “PubChem BioAssay data set” (2004)
The source made the active and inactive calls.

What was measured:
[1] = biological target: T1, Microphthalmia-associated transcription factor (Homo sapiens, UniProt O75030); test: TRPM1 promoter luciferase signal decrease, dose response, MITF inhibitor project, cell-based, SK-MEL-5, cherry-picked, set 3 (AID 493073); format: functional
T1 sequence (O75030 whole entry): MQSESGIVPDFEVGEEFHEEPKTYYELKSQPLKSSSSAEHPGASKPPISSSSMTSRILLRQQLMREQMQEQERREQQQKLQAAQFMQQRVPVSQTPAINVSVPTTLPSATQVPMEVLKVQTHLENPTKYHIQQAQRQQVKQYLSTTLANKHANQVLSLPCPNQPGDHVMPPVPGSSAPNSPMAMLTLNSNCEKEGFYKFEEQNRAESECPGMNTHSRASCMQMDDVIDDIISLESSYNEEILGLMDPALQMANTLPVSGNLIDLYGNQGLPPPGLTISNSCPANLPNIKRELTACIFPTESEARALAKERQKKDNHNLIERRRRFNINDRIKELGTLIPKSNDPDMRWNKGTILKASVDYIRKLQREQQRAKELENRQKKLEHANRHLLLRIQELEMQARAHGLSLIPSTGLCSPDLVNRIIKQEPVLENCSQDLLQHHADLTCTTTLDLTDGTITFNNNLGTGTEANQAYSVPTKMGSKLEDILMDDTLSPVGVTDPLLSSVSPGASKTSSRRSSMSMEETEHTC

Escherichia coli = test: microbe, parasite or virus in culture
[2] = inhibitors of firefly luciferase expression or activity, dose response, H4 neuroglioma cells, luminescence (AID 1990); format: functional, cell-based
[3] = Luminescence Cell-Based Dose Response HTS to Identify Inhibitors of 5'UTR Stem-Loop Driven Prion Protein mRNA Translation in H4 Neuroglioblastoma Cells. [Related pubchem assays: 1827 (Project Summary), 1813 (Primary HTS)]; format: functional
[4] = inhibitors of SNCA 5'UTR-driven reporter translation, confirmation, H4 neuroglioma cells, luminescence (AID 1988); format: functional, cell-based
[5] = biological target: Glyceraldehyde-3-phosphate dehydrogenase (Homo sapiens, UniProt P04406)
[6] = THP-1 cell cytotoxicity, dose response, cytotoxicity control for non-replicating M. tuberculosis project (AID 489025); format: functional
cells = format: functional
[7] = biological target: T2, DNA repair protein RAD52 homolog (Homo sapiens, UniProt P43351); format: functional, biochemical
T2 sequence (P43351 whole entry): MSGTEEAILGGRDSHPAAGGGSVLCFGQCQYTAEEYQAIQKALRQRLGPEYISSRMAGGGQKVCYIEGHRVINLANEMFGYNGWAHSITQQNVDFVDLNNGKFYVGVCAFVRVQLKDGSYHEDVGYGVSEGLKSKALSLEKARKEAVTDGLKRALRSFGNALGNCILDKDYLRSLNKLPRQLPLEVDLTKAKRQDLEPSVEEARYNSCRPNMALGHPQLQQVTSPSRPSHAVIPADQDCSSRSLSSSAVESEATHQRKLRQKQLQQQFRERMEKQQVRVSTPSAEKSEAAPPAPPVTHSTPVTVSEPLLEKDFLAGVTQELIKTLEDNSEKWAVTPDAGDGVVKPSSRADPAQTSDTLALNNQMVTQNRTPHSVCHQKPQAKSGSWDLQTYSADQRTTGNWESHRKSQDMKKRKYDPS

[8] = biological target: T3, Replicative DNA helicase DnaB (Mycobacterium tuberculosis, UniProt P9WMR3); test: DnaB intein splicing inhibitors, dose response, biochemical, cell-free fluorescence (AID 449749); format: functional
T3 sequence (P9WMR3 whole entry): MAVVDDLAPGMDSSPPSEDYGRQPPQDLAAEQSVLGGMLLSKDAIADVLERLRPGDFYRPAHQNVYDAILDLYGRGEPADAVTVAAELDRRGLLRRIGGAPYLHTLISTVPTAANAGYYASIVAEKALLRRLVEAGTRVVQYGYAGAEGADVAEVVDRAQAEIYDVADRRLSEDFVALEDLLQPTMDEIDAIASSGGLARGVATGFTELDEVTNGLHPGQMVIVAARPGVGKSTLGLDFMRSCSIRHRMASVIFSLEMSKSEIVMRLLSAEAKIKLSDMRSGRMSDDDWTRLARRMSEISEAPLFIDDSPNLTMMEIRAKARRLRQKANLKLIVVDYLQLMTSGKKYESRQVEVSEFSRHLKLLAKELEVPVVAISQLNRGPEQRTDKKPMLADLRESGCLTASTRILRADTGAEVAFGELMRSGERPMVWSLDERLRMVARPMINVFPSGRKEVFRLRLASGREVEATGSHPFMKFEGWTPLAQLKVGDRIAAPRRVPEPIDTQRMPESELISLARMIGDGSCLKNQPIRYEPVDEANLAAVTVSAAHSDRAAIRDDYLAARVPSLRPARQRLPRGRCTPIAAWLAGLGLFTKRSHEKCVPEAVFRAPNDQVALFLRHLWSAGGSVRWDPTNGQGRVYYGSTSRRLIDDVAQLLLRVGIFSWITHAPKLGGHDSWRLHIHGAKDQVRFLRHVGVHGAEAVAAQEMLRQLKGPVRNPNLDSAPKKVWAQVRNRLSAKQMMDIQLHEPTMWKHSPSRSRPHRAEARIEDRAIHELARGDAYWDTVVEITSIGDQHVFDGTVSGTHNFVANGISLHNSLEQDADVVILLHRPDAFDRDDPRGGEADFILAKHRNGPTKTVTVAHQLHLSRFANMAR

Vero = Vero cell cytotoxicity, cytotoxicity control for flavivirus capping enzyme inhibitors (AID 588742); format: functional; conditions: Chlorocebus sabaeus
Protein RecA = biological target: T4, Protein RecA (Mycobacterium tuberculosis, UniProt P9WHJ3); test: Fluorescence Cell-Free Homogeneous Dose Retest to Identify Inhibitors of RecA-Intein Splicing Activity. [Related pubchem assays (depositor defined):AID2097, AID2223, AID489010, AID492950]; format: functional
T4 sequence (P9WHJ3 whole entry): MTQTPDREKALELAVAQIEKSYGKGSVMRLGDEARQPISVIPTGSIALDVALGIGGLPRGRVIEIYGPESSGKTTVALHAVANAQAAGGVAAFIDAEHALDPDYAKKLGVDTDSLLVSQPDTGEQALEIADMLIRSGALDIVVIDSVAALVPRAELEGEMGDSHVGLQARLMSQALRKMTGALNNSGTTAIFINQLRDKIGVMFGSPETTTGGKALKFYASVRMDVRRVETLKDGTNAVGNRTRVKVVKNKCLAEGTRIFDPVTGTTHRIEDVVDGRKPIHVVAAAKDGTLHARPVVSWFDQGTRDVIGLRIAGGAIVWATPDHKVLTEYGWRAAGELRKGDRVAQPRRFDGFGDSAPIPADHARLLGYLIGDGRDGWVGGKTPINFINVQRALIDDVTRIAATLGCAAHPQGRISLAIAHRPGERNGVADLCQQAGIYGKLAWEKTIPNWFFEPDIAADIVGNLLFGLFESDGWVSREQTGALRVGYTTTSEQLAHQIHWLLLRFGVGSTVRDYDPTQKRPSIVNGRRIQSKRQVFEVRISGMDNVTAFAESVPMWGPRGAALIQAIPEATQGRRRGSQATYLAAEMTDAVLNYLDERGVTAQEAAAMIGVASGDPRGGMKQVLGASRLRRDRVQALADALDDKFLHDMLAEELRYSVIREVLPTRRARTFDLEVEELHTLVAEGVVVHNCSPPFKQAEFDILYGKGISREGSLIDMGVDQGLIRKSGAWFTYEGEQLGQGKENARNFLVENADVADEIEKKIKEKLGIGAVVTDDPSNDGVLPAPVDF

Genome polyprotein = Genome polyprotein (dengue virus type 2, UniProt P29990); test: Dengue-2 NS5 methyltransferase inhibitors, primary screen, biochemical, confirmation dose response (AID 588689); format: functional
[9] = Shn3 3'UTR reporter inhibitors, dose response, cell-based, Clone20 osteoblasts, firefly luciferase, cherry-picked (AID 624132); format: functional;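 note: firefly luciferase luminescence from reporter carrying the Shn3 3'UTR in osteoblasts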
[10] = control 3'UTR Renilla luciferase suppression, dose response, counter-screen for Shn3 inhibitor project, cell-based, Clone20-Shn3RL, cherry-picked (AID 624133); format: functional
Estrogen receptor beta = Estrogen receptor beta (Homo sapiens, UniProt Q92731);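 note: recombinant ER-beta bound to coactivator SRC1 peptide in presence of estradiol agonist; inhibitors block coactivator peptide binding and lower the FRET signal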
[11] = inhibitors of intracellular T. cruzi replication, confirmation, NIH3T3 host cells, beta-gal luminescence (AID 2044); format: functional, cell-based;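 note: intracellular parasites grown in NIH/3T3 mouse fibroblasts as host cells; luminescent beta-galactosidase reporter signal from transgenic T. cruzi replicating inside host cells; inhibitors lower the luminescence signal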
[12] = cytotoxicity toward NIH3T3 fibroblasts, dose response, counter-screen, cell-based, ATP luminescence, mouse fibroblasts (AID 2010); format: functional;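 note: cells exposed to compound for about 90 hours before reading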
[13] = P. falciparum 3D7-ScDHODH growth inhibitors, dose response, SYBR Green, dry powder samples (AID 1159570); format: functional, cell-based;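 note: parasite growth measured after 72 hours of compound exposure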
[14] = P. falciparum Dd2 growth inhibitors, dose response, SYBR Green, cherry-picked samples (AID 1159567); format: functional, cell-based
[15] = P. falciparum Dd2 growth inhibitors, dose response, SYBR Green, dry powder samples (AID 1159566); format: functional, cell-based;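 note: potency for growth inhibition with lower SYBR green DNA signal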
[16] = P. falciparum ATP4 D1247Y mutant growth inhibitors, dose response, NITD609-resistant line, SYBR Green, dry powder (AID 1159571); format: functional, cell-based;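 note: parasites synchronized at ring stage by sorbitol before testing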
[17] = Luminescence Cell-Based Dose Retest to Confirm Inhibitors of Cancer Stem Cells. [Related pubchem assays (depositor defined):AID2717, AID2721]; format: functional; conditions: Homo sapiens
[18] = HeLa cell cytotoxicity, dose response, cytotoxicity control for MgcRacGAP inhibitor project (AID 624300); format: functional
[19] = biological target: T5, Rac GTPase-activating protein 1 (Homo sapiens, UniProt Q9H0H5); test: MgcRacGAP GTPase-activating activity inhibitors, confirmation, biochemical, ADP Hunter fluorescence, primary and confirmatory (AID 624330); format: functional
T5 sequence (Q9H0H5 whole entry): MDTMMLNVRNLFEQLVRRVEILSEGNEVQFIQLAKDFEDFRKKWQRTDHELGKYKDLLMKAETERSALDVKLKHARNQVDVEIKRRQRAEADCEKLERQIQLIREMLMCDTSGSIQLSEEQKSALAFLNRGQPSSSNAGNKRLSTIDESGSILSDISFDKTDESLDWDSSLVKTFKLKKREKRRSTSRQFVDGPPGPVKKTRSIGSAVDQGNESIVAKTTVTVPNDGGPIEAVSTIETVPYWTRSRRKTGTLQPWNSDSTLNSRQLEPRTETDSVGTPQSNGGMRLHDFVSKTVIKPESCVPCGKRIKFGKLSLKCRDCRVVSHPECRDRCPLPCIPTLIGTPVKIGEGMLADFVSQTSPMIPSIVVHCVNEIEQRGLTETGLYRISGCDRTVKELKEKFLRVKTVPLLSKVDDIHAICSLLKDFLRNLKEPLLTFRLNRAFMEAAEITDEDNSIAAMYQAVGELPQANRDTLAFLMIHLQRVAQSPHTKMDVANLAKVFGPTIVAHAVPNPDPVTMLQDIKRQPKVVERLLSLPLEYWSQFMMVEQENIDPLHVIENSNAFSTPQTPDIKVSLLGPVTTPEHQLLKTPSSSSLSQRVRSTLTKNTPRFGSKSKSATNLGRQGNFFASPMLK

[20] = biological target: DNA dC->dU-editing enzyme APOBEC-3G (Homo sapiens, UniProt Q9HC16); test: Dose Response confirmation of small molecule APOBEC3G DNA Deaminase Inhibitors via a fluorescence-based single-stranded DNA deaminase assay. [Related pubchem assays (depositor defined):AID493012, AID493028]; format: functional
DNA dC->dU-editing enzyme APOBEC-3G, sequence (Q9HC16 whole entry): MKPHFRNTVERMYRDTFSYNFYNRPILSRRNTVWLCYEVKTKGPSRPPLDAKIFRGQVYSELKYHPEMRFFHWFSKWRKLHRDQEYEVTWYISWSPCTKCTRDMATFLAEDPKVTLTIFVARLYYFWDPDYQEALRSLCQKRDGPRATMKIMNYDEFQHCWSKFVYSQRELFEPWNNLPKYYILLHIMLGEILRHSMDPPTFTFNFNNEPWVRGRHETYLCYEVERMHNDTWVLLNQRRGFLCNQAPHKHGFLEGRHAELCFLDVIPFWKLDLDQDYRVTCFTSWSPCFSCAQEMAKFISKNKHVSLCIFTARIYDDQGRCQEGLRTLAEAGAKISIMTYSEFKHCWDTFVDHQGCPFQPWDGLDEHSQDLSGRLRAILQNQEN

Estrogen receptor beta, sequence (Q92731 whole entry): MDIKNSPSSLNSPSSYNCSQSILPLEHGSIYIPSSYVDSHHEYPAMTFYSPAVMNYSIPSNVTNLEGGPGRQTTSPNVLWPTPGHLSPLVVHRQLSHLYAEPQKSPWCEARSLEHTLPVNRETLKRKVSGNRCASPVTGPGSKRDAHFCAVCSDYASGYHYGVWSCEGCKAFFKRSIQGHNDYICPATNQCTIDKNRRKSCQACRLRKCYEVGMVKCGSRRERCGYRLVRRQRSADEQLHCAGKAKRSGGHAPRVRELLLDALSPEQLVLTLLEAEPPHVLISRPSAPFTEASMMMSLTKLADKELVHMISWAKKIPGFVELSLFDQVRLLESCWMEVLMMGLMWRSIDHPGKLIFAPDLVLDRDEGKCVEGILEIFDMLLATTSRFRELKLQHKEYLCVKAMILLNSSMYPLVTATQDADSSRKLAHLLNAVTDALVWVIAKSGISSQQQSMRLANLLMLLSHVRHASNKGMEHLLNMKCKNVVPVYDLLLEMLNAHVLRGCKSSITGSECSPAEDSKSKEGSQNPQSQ
Glyceraldehyde-3-phosphate dehydrogenase, sequence (P04406 whole entry): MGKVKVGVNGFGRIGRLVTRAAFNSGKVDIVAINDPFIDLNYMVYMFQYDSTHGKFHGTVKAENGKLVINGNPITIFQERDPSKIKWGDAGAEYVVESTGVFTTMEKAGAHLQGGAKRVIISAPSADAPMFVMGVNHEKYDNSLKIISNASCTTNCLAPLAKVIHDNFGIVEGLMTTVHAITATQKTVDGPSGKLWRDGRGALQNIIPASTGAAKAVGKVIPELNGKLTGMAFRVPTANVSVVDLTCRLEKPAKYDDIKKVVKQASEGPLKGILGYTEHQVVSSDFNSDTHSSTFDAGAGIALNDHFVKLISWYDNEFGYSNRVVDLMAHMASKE
Genome polyprotein, sequence (P29990 2492-3391 limits assumed): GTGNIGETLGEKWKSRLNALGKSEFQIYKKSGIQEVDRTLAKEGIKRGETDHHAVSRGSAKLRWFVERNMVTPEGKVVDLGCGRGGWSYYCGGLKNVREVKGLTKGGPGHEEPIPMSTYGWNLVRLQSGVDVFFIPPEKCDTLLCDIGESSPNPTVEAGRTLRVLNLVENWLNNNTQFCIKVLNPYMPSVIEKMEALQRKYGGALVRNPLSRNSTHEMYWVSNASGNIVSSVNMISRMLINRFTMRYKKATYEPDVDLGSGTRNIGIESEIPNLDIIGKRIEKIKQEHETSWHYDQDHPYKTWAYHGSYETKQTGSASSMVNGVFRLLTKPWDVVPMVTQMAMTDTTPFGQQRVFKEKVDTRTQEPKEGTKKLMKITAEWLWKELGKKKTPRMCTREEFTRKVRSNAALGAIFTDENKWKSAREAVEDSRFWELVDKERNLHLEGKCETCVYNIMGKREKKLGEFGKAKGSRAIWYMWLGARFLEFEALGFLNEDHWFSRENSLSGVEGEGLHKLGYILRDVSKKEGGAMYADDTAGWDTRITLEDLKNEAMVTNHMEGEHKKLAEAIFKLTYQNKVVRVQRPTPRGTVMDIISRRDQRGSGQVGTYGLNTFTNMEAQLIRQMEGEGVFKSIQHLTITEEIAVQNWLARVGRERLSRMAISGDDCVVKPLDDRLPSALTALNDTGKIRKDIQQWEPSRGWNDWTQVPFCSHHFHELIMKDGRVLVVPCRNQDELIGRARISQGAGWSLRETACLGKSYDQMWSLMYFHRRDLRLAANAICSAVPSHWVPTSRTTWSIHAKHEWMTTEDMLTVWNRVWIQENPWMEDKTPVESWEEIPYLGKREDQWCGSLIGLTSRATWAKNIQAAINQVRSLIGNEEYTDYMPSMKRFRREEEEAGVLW

## CCOC(=O)N1C(=O)[C@](CC)(c2ccccc2)N1C(=O)OCC
[1]
  AC50: 10 µM (active)

## COC(=O)c1ccc(C2CC(=O)Nc3cc(OC)c(OC)cc32)cc1 (stereo not drawn)
Escherichia coli
  AC50: 32 µM (active)

## COc1cc2cc(C(c3nnnn3C3CCCCC3)N(C)C3CCCCC3)c(O)nc2cc1OC (stereo not drawn)
[2]
  EC50: 15.7 µM (active)
[3]
  EC50: > 120 µM (not active)
[4]
  EC50: > 120 µM (not active)

## Cc1onc(-c2ccccc2Cl)c1C(=O)Nc1ccc(S(N)(=O)=O)cc1
[5]
  IC50: > 100 µM (not active)

## O=C1/C(=C/c2ccccn2)COc2ccccc21
[6]
  CC50: 28.2 µM (active)
cells
  IC50: 20.9 µM (active)

## CCOc1cccc2sc(N(CCCN(C)C)C(=O)c3ccc(C(=O)c4ccccc4)cc3)nc12
[7]
  AC50: 17.3 µM (active)

## O=C(NNC(=O)c1ccc2ncccc2c1)c1ccc(Cl)cc1
[2]
  EC50: > 120 µM (not active)
[3]
  EC50: > 120 µM (not active)
[4]
  EC50: > 120 µM (not active)

## COc1ccc(/C=C(/NC(=O)c2cccc([N+](=O)[O-])c2)C(=O)O)cc1
Escherichia coli
  AC50: 84.9 µM (active)

## Cc1cccc(CS(=O)(=O)c2ncc(Cl)c(C(=O)Nc3nnc(C(C)C)s3)n2)c1
[8]
  AC50: 1.2 µM (active)
Vero
  CC50: 25.6 µM (active)
Protein RecA
  EC50: 312 nM (active)
Genome polyprotein
  IC50: 94.3 µM (active)
[9]
  AC50: 1.62 µM (active)
[10]
  AC50: 4.36 µM (active)

## Cc1onc(-c2ccccc2Cl)c1C(=O)NCc1ccccn1
[2]
  EC50: > 120 µM (not active)
[3]
  EC50: > 120 µM (not active)
[4]
  EC50: > 120 µM (not active)

## CCn1c(NN)nc2sc3c(c2c1=O)CCC3
Estrogen receptor beta
  IC50: > 50 µM (not active)

## O=C(NCCCCCCCN1CCCCCCC1)C(C1CCCCC1)C1CCCCC1
[7]
  AC50: 8.88 µM (active)

## CC(OC(=O)c1ccc([N+](=O)[O-])s1)C(=O)NC1CCCCC1C (stereo not drawn)
[1]
  AC50: 12 µM (active)
cells
  IC50: 14.1 µM (active)

## CN(C)CCNC(=O)c1ccc(-c2cn3c(-c4ccc(Oc5ccccc5)cc4)cnc3cn2)cc1
[7]
  AC50: 5.06 µM (active)

## COc1ccc(/C=N/NC(=O)c2cccnc2)cc1COc1ccc([N+](=O)[O-])c(C)c1
[2]
  EC50: > 120 µM (not active)
[3]
  EC50: 28.9 µM (active)
[4]
  EC50: 8.08 µM (active)

## O=C(N/N=C\c1ccc([N+](=O)[O-])o1)C1COc2ccccc2O1 (stereo not drawn)
[11]
  EC50: 532 nM (active)
[12]
  EC50: > 60 µM (inconclusive)
[6]
  CC50: 32.5 µM (active)
[1]
  AC50: 7.21 µM (active)
cells
  IC50: 4.2 µM (active)

## C[C@H]1CN([C@@H](C)CO)C(=O)c2cc(NC(=O)Nc3ccc(C(F)(F)F)cc3)ccc2O[C@@H]1CN(C)C(=O)Nc1cccc2ccccc12
[13]
  AC50: 1.42 µM (active)
[14]
  AC50: 2.41 µM (active)
[15]
  AC50: 1.37 µM (active)
[16]
  AC50: 1.56 µM (active)

## Oc1ccc(-c2csc(Nc3ccccn3)n2)c(O)c1
[17]
  AC50: 1.74 µM (active)
[18]
  CC50: 100 µM (active)
[19]
  IC50: 59.5 µM (active)

## O=C1C=CC(=O)C=C1 [BENZOQUINONE]
[20]
  IC50: 36.1 µM (active)
